Test results as given in PMC11314621, “Cheminformatics-Guided Exploration of Synthetic Marine Natural Product-Inspired Brominated Indole-3-Glyoxylamides and Their Potentials for Drug Discovery” (Molecules, 2024).
Where two headings read alike, the source gives them in different places.

How the values were obtained:
[1] = target: T1, α-synuclein (Homo sapiens, UniProt P37840); assay: In vitro α-synuclein affinity MS-binding assay; settings: 3 h incubation, 5:1 molar ratio, (+)-HRESIMS
T1 construct: α-synuclein protein solutions (10 μM) were prepared in 10 mM ammonium acetate
Procedure: The synthetic indoles were incubated with α-syn for 3 h at a 5:1 molar ratio, after which a (+)- mode high-resolution MS spectrum was acquired.
α-synuclein protein solutions (10 μM) were prepared in 10 mM ammonium acetate. Synthetic IGAs 25, 26, 34, 41, 45, 46, 51, and 52 (100 μM) were dissolved in 100% MeOH and incubated with α-syn at room temperature for 3 h. Protein-ligand interactions were analysed using (+) HRESIMS calibrated with sodium trifluoroacetate (0.1 mg/mL) with the following parameters: nebuliser 2.0 Bar; dry gas 7 L/min; dry temp 150 °C; funnel I RF 400 Vpp; end plate offset 500 V; capillary 4500 V; ISCID 0.0 ev; ion energy 4.0 eV; transfer time 100 μs; multipole RF 800 Vpp; collision RF 1200 Vpp; prepulse storage 10 μs; spectra rate: 2 × 100 Hz. The resulting spectra were analysed for additional peaks representing complexes formed between α-syn and active compounds.

[2] = target: T2, SARS-CoV-2 3CLpro (Severe acute respiratory syndrome coronavirus 2, UniProt P0DTD1); assay: biochemical
T2 construct: Each well contained 25 nM of SARS-CoV-2 3CL^Pro and eCFP-Venus biosensor (500 nM)

[3] = target: T3, porcine pancreatic elastase (Sus scrofa, UniProt P00772); assay: Serine protease assay, elastase; type: biochemical; settings: remaining enzyme activity
T3 construct: high-purity porcine pancreatic elastase (Sigma, Melbourne, Victoria, Australia, E0258); purchased Sigma E0258
T3 sequence (P00772 27-266): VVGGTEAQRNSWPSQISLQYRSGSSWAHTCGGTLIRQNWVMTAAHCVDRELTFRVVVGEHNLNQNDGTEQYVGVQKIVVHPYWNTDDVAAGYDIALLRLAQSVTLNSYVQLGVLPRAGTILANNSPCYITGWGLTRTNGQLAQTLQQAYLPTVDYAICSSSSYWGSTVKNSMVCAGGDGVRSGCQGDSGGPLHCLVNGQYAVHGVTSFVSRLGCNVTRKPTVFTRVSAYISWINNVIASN
Procedure: (§1) Serine protease-inhibitory activities for 25–56 were determined in 96 well plates. Each inhibitor was initially tested in duplicate against elastase and chymotrypsin at 10 µM. […] Assays for the inhibition of elastase were undertaken using high-purity porcine pancreatic elastase (Sigma, Melbourne, Victoria, Australia, E0258) in an assay buffer of 50 mM Tris-HCl (pH 8.0) at room temperature. Dilutions of each inhibitor (originally resuspended in DMSO) were prepared in triplicate and then preincubated with 375 ng of elastase for 15 min at room temperature in a total reaction volume of 85 µL. Following this preincubation, 15 µL of 2 mM N-succinyl-Ala-Ala-Ala-p-nitroanilide (Sigma, S4760) in assay buffer was added to each well and kinetic measurement of absorbance at 405 nm (Tecan Spark Plate Reader, Zürich, Switzerland) was undertaken for 30 min. […] Dilutions of each inhibitor were prepared in triplicate and preincubated with 5 µg of chymotrypsin for 10 min at 37 °C in a total reaction volume of 75 µL. After preincubation, 25 µL of 2 mM N-succinyl-Gly-Gly-Phe-p-nitroanilide (Sigma, S1899) was added to each well and kinetic measurement of absorbance at 405 nm was undertaken for 30 min. Inhibitory activity was determined by comparison of the slope of the reaction curve for multiple dilutions of the inhibitor to that of an equivalent solvent control and expressed as IC50 ± standard deviation.

[4] = target: T4, α-chymotrypsin from bovine pancreas (Bos taurus, UniProt P00766); assay: Serine protease assay, chymotrypsin; type: biochemical; settings: for % enzyme activity @ 10 µM, chymotrypsin / remaining activity at 10 µM: remaining enzyme activity; for IC50: IC50 ± standard deviation
T4 construct: α-chymotrypsin from bovine pancreas (Sigma, C4129); purchased Sigma C4129; host or cells: bovine pancreas
Procedure: as §1

[5] = test system: protein kinase C; settings: ref [15]; cited from earlier work
[6] = test system: P. falciparum 3D7; assay: Antiplasmodial image-based assay, 3D7 strain; type: cell-based, Plasmodium falciparum; settings: chloroquine-sensitive P. falciparum strain 3D7
Procedure: (§2) An anti-plasmodial imaging assay reported by Duffy and Avery was used to examine the antiplasmodial activities of synthetic indoles 25, 26, 36, 37, 38, 40, 41, 43, 45, 46, 47, 48, 50 and 51. All compounds were diluted to […] in DMSO and tested at three increasing concentrations from 0.4 nM–40 μM per log dose in a 16-point CRC ([…]) parasite strains of Plasmodium falciparum. […] Normalised percent inhibition data was obtained using in-plate positive (4 μM DHA) and negative (0.4% DMSO) controls, which were then used to calculate IC50 values. Compounds were incubated in CellCarrier-384 well imaging plates in the presence of 2% parasitemia (3D7 or Dd2) at 0.3% hematocrit in a total assay volume of 50 μL for 72 h at 37 °C, 5% O2, 5% CO2 and 90% N2. After incubation, plates were stained with 4′,6-diamidino-2-phenylindole (DAPI) and imaged using an Opera Phenix high-content imaging system (Revvity, Mulgrave, Victoria, Australia). Images were analysed using Harmony (Revvity) software (version 3), while percent parasite inhibition was calculated using the minimum (0.4% DMSO) and (DHA). IC50 values were determined by plotting % inhibition against log dose and analysed using nonlinear regression and sigmoidal dose-response using GraphPad Prism version 6.

[7] = test system: HEK293 cells; assay: HEK293 cell cytotoxicity; type: cell-based; settings: 60 µM, human embryonic kidney cell line
[8] = test system: P. falciparum Dd2; assay: Antiplasmodial image-based assay, Dd2 strain; type: cell-based, Plasmodium falciparum; settings: chloroquine-resistant P. falciparum strain Dd2
Procedure: as §2

[9] = test system: prion; settings: cited from earlier work
[10] = target: T2, SARS-CoV-2 3CLpro; settings: cited from earlier work; for inhibition of SARS-CoV-2 3CLPro: ref [33]
[11] = test system: elastase; set-up: method as in PMID 37609780; settings: ref [36]; cited from earlier work
[12] = test system: HIV-1; set-up: method as in PMID 34095843, PMID 30940396; settings: ref [34],[35]; cited from earlier work

O=C(N[C@H](Cc1ccc(O)cc1)C(=O)O)C(=O)c1c[nH]c2cc(Br)ccc12 [Compound 52, 6-bromoindolyl-3-glyoxyl-D-tyrosine]
binding with α-syn (protein-ligand complexes in MS) [1]: α-syn binding displayed | % inhibition @ 20 µM, No DTT ([2]; 20 µM, no DTT): 14.0% | % inhibition @ 20 µM, DTT ([2]; 20 µM, with DTT (4 mM)): 4.9% | % enzyme activity @ 10 µM, elastase [3]: 97.1% | % enzyme activity @ 10 µM, chymotrypsin [4]: 97.2%

CO[C@@H]1[C@H](NC(=O)C(=O)c2c[nH]c3ccccc23)C[C@H]2O[C@]1(C)n1c3ccccc3c3c4c(c5c6ccccc6n2c5c31)C(=O)NC4 [Compound 13, 13G-291]
protein kinase C inhibition [5]: only weak inhibition

O=C(N[C@H](Cc1c[nH]c2ccccc12)C(=O)O)C(=O)c1c[nH]c2ccc(Br)cc12 [Compound 46, 5-bromoindolyl-3-glyoxyl-D-tryptophan]
inhibition at 60 µM ([6]; Plasmodium falciparum, 3D7, 72 h, 60 µM, 72 h): ~100% | IC50 ([6]; Plasmodium falciparum): 7.4 µM | binding with α-syn (protein-ligand complexes in MS) [1]: α-syn binding displayed | inhibition at 20 µM ([2]; read-out: % inhibition @ 20 µM, DTT): 2.5% | inhibition at 20 µM ([2]; read-out: % inhibition @ 20 µM, No DTT): 27.4% | inhibition at 60 µM ([7]; HEK293): 21.5% | remaining activity at 10 µM [3]: 90.9% | % Inhibition @ 60 µM, Dd2 ([8]; 60 µM, 72 h): 97.5% | inhibition at 60 µM ([8]; Plasmodium falciparum, DD2, 72 h, 60 µM, 72 h): ~100% | IC50 ([8]; Plasmodium falciparum): 8.2 µM | remaining activity at 10 µM [4]: 47.7% | IC50 [4]: 6.3 µM

COc1ccc(C/C(=N\O)C(=O)NCCc2cc(Br)c(OCCCN(C)C)c(Br)c2)cc1Br [Compound 57, aplysamine-2]
anti-prion activity in a yeast-based assay ([9]; ref [25]): micromolar anti-prion activities

purealidine Q
anti-prion activity in a yeast-based assay [9]: micromolar anti-prion activities

O=C[C@H](C[C@@H]1CCNC1=O)NC(=O)[C@H](CC1CCCCC1)NC(=O)c1cc2ccccc2[nH]1 [Compound 62]
inhibition of SARS-CoV-2 3CLPro [10]: nanomolar inhibition

CC[C@H](C)[C@@H]1NC(=O)[C@H](CC(C)C)NC(=O)[C@@H](N2C(=O)N[C@@H](C)C2=O)CNC(=O)[C@H](CS(=O)(=O)O)NC(=O)/C=C/c2csc(n2)[C@H](Cc2ccc(O)cc2)NC(=O)C1=O [Compound 66, cyclotheonellazole D]
elastase inhibition [11]: nanomolar potent inhibitor | change of SARS-CoV-2 3CLPro inhibition in the presence of DTT ([10]; DTT (4 mM) versus no DTT, ref [36]): more than eightfold reduction

C[C@@H]1CN(C(=O)c2ccccc2)CCN1C(=O)C(=O)c1c[nH]c2ccccc12 [Compound 65]
inhibition of HIV-1 [12]: nanomolar inhibition

O=C(N[C@@H](Cc1ccc(O)cc1)C(=O)O)C(=O)c1c[nH]c2cc(Br)ccc12 [Compound 51, 6-bromoindolyl-3-glyoxyl-L-tyrosine]
% Inhibition @ 60 µM, 3D7 ([6]; 60 µM, 72 h): 58.0% | binding with α-syn (protein-ligand complexes in MS) [1]: α-syn binding displayed | % inhibition @ 20 µM, No DTT ([2]; 20 µM, no DTT): 23.3% | % inhibition @ 20 µM, DTT ([2]; 20 µM, with DTT (4 mM)): 6.9% | % Inhibition @ 60 µM, HEK293 [7]: 21.5% | % enzyme activity @ 10 µM, elastase [3]: 100.3% | % Inhibition @ 60 µM, Dd2 ([8]; 60 µM, 72 h): 56.0% | % enzyme activity @ 10 µM, chymotrypsin [4]: 91.8%

O=C[C@H](C[C@@H]1CCNC1=O)NC(=O)[C@H](Cc1cccc(F)c1)NC(=O)c1cc2ccccc2[nH]1 [Compound 63]
inhibition of SARS-CoV-2 3CLPro [10]: nanomolar inhibition

O=C(N[C@@H](CSSC[C@H](NC(=O)C(=O)c1c[nH]c2cc(Br)ccc12)C(=O)O)C(=O)O)C(=O)c1c[nH]c2cc(Br)ccc12 [Compound 34, 6-bromoindolyl-3-glyoxyl-L-cystine]
binding with α-syn (protein-ligand complexes in MS) [1]: α-syn binding displayed | inhibition at 20 µM ([2]; 20 µM, no DTT, read-out: % inhibition @ 20 µM, No DTT): 86.1% | inhibition at 20 µM ([2]; 20 µM, with DTT (4 mM), read-out: % inhibition @ 20 µM, DTT): 4.6% | IC50 ([2]; no DTT): 6.4 µM | remaining activity at 10 µM [3]: 93.5% | remaining activity at 10 µM [4]: 93.1%

O=C(C(=O)N1CCN(C(=O)c2ccccc2)CC1)c1c[nH]c2ccccc12 [Compound 64]
inhibition of HIV-1 [12]: nanomolar inhibition

O=C(N[C@@H](Cc1c[nH]c2ccccc12)C(=O)O)C(=O)c1c[nH]c2ccc(Br)cc12 [Compound 45, 5-bromoindolyl-3-glyoxyl-L-tryptophan]
% Inhibition @ 60 µM, 3D7 ([6]; 60 µM, 72 h): 73.0% | binding with α-syn (protein-ligand complexes in MS) [1]: α-syn binding displayed | % inhibition @ 20 µM, No DTT ([2]; 20 µM, no DTT): 21.8% | % inhibition @ 20 µM, DTT ([2]; 20 µM, with DTT (4 mM)): 3.7% | % Inhibition @ 60 µM, HEK293 [7]: 24.0% | % enzyme activity @ 10 µM, elastase [3]: 94.0% | % Inhibition @ 60 µM, Dd2 ([8]; 60 µM, 72 h): 56.0% | % enzyme activity @ 10 µM, chymotrypsin [4]: 69.2% | IC50 [4]: 16.3 µM
